Assay results: patent publication US9393251B2, “Compositions and methods for treating severe thrombocytopenia related disease” (priority 2013, dated 2016)

Key:
[1] = tested on: rheumatoid arthritis, systemic lupus erythematosus and Sjögren's syndrome; assay: Patients with rheumatoid arthritis, systemic lupus erythematosus and Sjögren's syndrome treated with the combination (Example 4); assay type: in vivo, human; settings: after Vitamin D deficiency corrected with high dose Vitamin D replacement
Procedure: Low levels of vitamin D have been implicated in a number of autoimmune disorders, such as rheumatoid arthritis, systemic lupus erythematosus, and Sjögren's syndrome. Patients with rheumatoid arthritis, systemic lupus erythematosus and Sjögren's syndrome were treated with a combination of weekly high doses of Vitamin D (50,000 IU) and daily doses of 400 mg of hydroxychloroquine.

[2] = Side effects of high-dose Vitamin D in the two ITP patients; assay type: in vivo, human
Procedure: The patient's platelet count was 215,000/mm^3 six weeks after discontinuing prednisone, indicating a regimen of hydroxychloroquine at a dose of 200 mg twice a day and Vitamin D at a dose of 50,000 IU once a week was sufficient to maintain a stable count. The patient remained stable without the administration of prednisone.
In the above examples, an association between vitamin D deficiency and immune thrombocytopenia in two patients is described. Both patients had SLE and/or Sjögren's overlap with positive serology and profound life-threatening thrombocytopenia, all of which were unaffected by conventional therapies. […] After discontinuation of supplemental Vitamin D in one patient (Example 1), the 25-OH Vitamin D normalized, but the platelet count subsequently plummeted. Resuming vitamin D supplementation restored the platelet count to the previous normal range.

[3] = tested on: IL-6 and IL-2; settings: Muller et al. 1991; cited from earlier work
[4] = tested on: multiple sclerosis in the murine model; settings: Cantorna 1996; Pedersen 2007; cited from earlier work

C=C1/C(=C\C=C2/CCC[C@]3(C)[C@@H]([C@H](C)CCCC(C)(C)O)CC[C@@H]23)C[C@@H](O)C[C@@H]1O [Vitamin D, 1a,25-dihydroxy cholecalciferol]
response to disease modifying anti-rheumatic drugs [1]: enhanced
changes in calcium, phosphate, or creatinine levels ([2]; Example 1 patient): no significant changes
untoward side effects ([2]; both patients): neither patient experienced any untoward side effect
production of interleukin IL-6 and IL-2 in cell cultures [3]: reduced
development of multiple sclerosis in the murine model [4]: can inhibit the development of multiple sclerosis
